Test results published in patent US9062046B2, “Substituted imidazoquinoline derivatives as kinase inhibitors” (Piramal Enterprises Limited, priority 2011, dated 2015).

What was measured:
PC3 (prostate cell line) = assay: Cytotoxicity assay (propidium iodide assay), PC3; type: cell-based; details: PC3 cells, 48 h treatment; for IC50 / inhibition at 1 µM: Homo sapiens, PC-3
Procedure, shortened: (§1)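 A2780 and PC3 cells, 3000/well, were treated with compound for 48 h after 18-24 h attachment. After washing, propidium iodide 7 μg/ml was added, followed by freeze-thaw at −70 °C and a fluorescence read. Viability was taken relative to untreated wells, with IC50 derived from the curves.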

[1] = test system: A2780 (ovarian cell line); assay: Cytotoxicity assay (propidium iodide assay), A2780; type: cell-based; details: A2780 cells, 48 h treatment; for IC50 / inhibition at 1 µM: Homo sapiens
Procedure, shortened: as §1

p110α = target: T1, p110α (Homo sapiens, UniProt P42336); assay: p110α radioactive lipid kinase assay (PI3Kα); type: biochemical; details: 25 μM ATP, 2 h at RT, read-out: IC50 in μM (PI3 kinase activity)
T1 construct: purchased Upstate Millipore
T1 sequence (P42336 whole entry, species assumed): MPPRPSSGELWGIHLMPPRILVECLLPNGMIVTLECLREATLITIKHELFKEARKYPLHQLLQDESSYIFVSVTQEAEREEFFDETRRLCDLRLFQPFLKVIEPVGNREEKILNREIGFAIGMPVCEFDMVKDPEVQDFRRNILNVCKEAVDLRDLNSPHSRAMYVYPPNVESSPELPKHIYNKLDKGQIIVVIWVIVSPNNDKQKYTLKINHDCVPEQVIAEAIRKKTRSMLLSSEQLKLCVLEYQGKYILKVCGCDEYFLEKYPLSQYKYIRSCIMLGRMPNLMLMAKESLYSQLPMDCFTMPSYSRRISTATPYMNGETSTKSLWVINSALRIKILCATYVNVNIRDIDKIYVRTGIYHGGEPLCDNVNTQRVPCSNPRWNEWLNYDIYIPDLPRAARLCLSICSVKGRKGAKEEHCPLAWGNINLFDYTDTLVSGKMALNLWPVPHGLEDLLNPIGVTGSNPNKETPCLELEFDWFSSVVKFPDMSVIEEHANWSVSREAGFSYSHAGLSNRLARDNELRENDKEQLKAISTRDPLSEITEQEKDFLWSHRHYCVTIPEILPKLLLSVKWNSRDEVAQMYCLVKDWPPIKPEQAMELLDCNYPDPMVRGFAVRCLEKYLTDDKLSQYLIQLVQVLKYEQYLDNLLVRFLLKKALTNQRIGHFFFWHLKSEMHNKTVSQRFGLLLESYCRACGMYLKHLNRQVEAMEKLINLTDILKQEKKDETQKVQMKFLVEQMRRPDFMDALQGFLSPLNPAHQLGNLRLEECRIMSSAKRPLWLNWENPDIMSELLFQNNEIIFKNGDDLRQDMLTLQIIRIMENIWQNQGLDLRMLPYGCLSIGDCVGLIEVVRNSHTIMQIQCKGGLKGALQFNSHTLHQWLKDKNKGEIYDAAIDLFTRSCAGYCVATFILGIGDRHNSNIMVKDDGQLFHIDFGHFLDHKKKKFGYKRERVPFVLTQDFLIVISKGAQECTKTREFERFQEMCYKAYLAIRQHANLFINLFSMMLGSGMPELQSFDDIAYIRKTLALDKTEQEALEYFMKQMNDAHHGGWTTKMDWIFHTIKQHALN
T1 sequence (P27986 whole entry partner, species assumed): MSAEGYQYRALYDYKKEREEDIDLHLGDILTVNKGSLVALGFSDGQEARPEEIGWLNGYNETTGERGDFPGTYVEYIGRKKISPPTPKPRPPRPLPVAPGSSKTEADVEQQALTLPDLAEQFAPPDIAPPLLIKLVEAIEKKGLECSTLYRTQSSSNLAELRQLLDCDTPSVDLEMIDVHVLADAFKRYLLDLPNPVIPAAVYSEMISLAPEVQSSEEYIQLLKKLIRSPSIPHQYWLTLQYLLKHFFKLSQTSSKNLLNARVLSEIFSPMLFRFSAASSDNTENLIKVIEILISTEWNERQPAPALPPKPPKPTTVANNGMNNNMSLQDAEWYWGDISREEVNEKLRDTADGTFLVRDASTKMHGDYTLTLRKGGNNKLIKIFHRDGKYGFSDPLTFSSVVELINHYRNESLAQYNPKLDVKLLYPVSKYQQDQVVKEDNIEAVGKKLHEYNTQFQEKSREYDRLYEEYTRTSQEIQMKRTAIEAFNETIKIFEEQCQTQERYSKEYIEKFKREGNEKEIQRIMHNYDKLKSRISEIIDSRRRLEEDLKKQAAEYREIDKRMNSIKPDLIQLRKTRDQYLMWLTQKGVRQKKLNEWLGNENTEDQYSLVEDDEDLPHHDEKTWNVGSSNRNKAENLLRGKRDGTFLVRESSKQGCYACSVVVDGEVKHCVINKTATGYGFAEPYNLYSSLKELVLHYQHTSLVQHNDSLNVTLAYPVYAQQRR
Experimental: Protocol for Kinase Assay (PI3Kα)
p110α Radioactive Lipid Kinase Assay
The assay was designed as in the reference, Journal of Biomolecular Screening, 2002, Vol. 7, No. 5, 441-450, the disclosure of which is incorporated by reference for the teaching of the assay.
The p110α biochemical assay was performed using a radioactive assay measuring the incorporation of ^32P into the p110α substrate, phosphatidylinsoitol (PI). For the generation of IC50 curves, the reaction was performed in a 96-well MaxiSorp plates. Plates were pre-coated with 4 μg/well of a 1:1 ratio of phosphatidylinositol (PI: Avanti #840042C) and phosphatidylserine (PS: Avanti #840032C) diluted in CHCl3. Equal amount of p110α (Upstate Millipore) protein was added to each well, containing reaction buffer (50 mM MOPSO pH7.0, 100 mM NaCl, 4 mM MgCl2, 0.1% (w/v) BSA) whereas, for negative control, only reaction buffer was added. Test compounds (referred to by example nos. in the following table 1) dissolved in DMSO were treated at nine-point dose responses. Reactions were initiated by the addition of 25 μM ATP solution containing 50 μCi/ml [γ-^32P]-ATP and incubated at RT for 2 h with gentle shaking. Reactions were finally terminated by the addition of 50 mM EDTA stock solution. Plates were washed 3 times with TBS buffer. The plates were air dried, Microscint 0 (Perkin Elmer) was added to each well and the plates were sealed. The radioactivity incorporated into the immobilized PI substrate was determined with Top Count (Perkin Elmer). Inhibition was calculated using the following equation: % inhibition=(Dcpm−Tcpm)/(Dcpm)×100 • Tcpm=^32P-cpm in presence of test compounds • Dcpm=^32P-cpm in DMSO control (enzyme control deducted) Results: IC50 values of test compounds for PI3 kinase activity is indicated in Table 1.

Row | Compound | IC50 (PC3 (prostate cell line)) [µM] | IC50 [1] [µM] | inhibition at 1 µM (PC3 (prostate cell line)) [%] | inhibition at 1 µM [1] [%] | further results
1 | Cn1c(=NC#N)n(-c2ccc(C(C)(C)C#N)nc2)c2c3cc(-c4cnc(N)c(C(F)(F)F)c4)ccc3ncc21 [Example 5, N-(8-(6-amino-5-(trifluoromethyl)pyridin-3-yl)-1-(6-(2-cyanopropan-2-yl)pyridin-3-yl)-3-methyl-1H-imidazo[4,5-c]quinolin-2(3H)-ylidene)cyanamide] | ≤ 0.5 | ≤ 0.5 | – | – | IC50 (p110α): ≤ 0.01 µM
2 | Cn1c(=NC#N)n(-c2ccc(C(C)(C)C#N)nc2)c2c3cc(-c4cncc(C(F)(F)F)c4)ccc3ncc21 [Example 70] | ≤ 0.5 | ≤ 0.5 | – | – | IC50 (p110α): ≤ 0.01 µM
3 | Cn1c(=NC#N)n(-c2ccc(C(C)(C)C#N)nc2)c2c3cc(-c4ccc5[nH]ccc5c4)ccc3ncc21 [Example 73, N-(1-(6-(2-cyanopropan-2-yl)pyridin-3-yl)-8-(1H-indol-5-yl)-3-methyl-1H-imidazo[4,5-c]quinolin-2(3H)-ylidene)cyanamide] | ≤ 0.5 | ≤ 0.5 | – | – | IC50 (p110α): ≤ 0.01 µM
4 | Cn1c(=NC#N)n(-c2ccc(C(C)(C)C#N)nc2)c2c3cc(-c4cnc(N)nc4)ccc3ncc21 [Example 75, N-(8-(2-aminopyrimidin-5-yl)-1-(6-(2-cyanopropan-2-yl)pyridin-3-yl)-3-methyl-1H-imidazo[4,5-c]quinolin-2(3H)-ylidene)cyanamide] | ≤ 0.5 | ≤ 0.5 | – | – | IC50 (p110α): 0.01 to 1 µM
5 | Cn1c(=NC#N)n(-c2ccc(C(C)(C)C#N)nc2)c2c3cc(-c4ccc(N5CCCCC5)nc4)ccc3ncc21 [Example 76, N-(1-(6-(2-cyanopropan-2-yl)pyridin-3-yl)-3-methyl-8-(6-(piperidin-1-yl)pyridin-3-yl)-1H-imidazo[4,5-c]quinolin-2(3H)-ylidene)cyanamide] | 0.5 to 2 | ≤ 0.5 | – | – | IC50 (p110α): 0.01 to 1 µM
6 | Cn1c(=NC#N)n(-c2ccc(C(C)(C)C#N)nc2)c2c3cc(-c4ccnc(N5CCOCC5)c4Cl)ccc3ncc21 [Example 121, N-(8-(3-chloro-2-morpholinopyridin-4-yl)-1-(6-(2-cyanopropan-2-yl)pyridin-3-yl)-3-methyl-1H-imidazo[4,5-c]quinolin-2(3H)-ylidene)cyanamide] | – | – | < 30 | < 30 | –
7 | Cn1c(=NC#N)n(-c2ccc(C(C)(C)C#N)nc2)c2c3cc(-c4cnc(NC(=O)OC(C)(C)C)c(C(F)(F)F)c4)ccc3ncc21 [Example 122, tert-butyl 5-(2-(cyanoimino)-1-(6-(2-cyanopropan-2-yl)pyridin-3-yl)-3-methyl-2,3-dihydro-1H-imidazo[4,5-c]quinolin-8-yl)-3-(trifluoromethyl)pyridin-2-ylcarbamate] | – | – | 30 to 70 | ≥ 70 | –
8 | COc1ccc(-n2c(=NC#N)n(C)c3cnc4ccc(-c5cnc(NC(=O)OC(C)(C)C)c(C(F)(F)F)c5)cc4c32)cn1 [Example 123, tert-butyl 5-(2-(cyanoimino)-1-(6-methoxypyridin-3-yl)-3-methyl-2,3-dihydro-1H-imidazo[4,5-c]quinolin-8-yl)-3-(trifluoromethyl)pyridin-2-ylcarbamate] | ≤ 0.5 | ≤ 0.5 | – | – | –
9 | COc1ncc(-c2ccc3ncc4c(c3c2)n(-c2ccc(C(C)(C)C#N)cc2)c(=NC#N)n4C)cc1NS(=O)(=O)c1ccccc1 [Example 124, N-(5-(2-(cyanoimino)-1-(4-(2-cyanopropan-2-yl)phenyl)-3-methyl-2,3-dihydro-1H-imidazo[4,5-c]quinolin-8-yl)-2-methoxypyridin-3-yl)benzenesulfonamide] | – | – | ≥ 70 | ≥ 70 | –
10 | COc1ncc(-c2ccc3ncc4c(c3c2)n(-c2ccc(C(C)(C)C#N)nc2)c(=NC#N)n4C)cc1NS(C)(=O)=O [Example 126, N-(5-(2-(cyanoimino)-1-(6-(2-cyanopropan-2-yl)pyridin-3-yl)-3-methyl-2,3-dihydro-1H-imidazo[4,5-c]quinolin-8-yl)-2-methoxypyridin-3-yl)methane sulfonamide] | ≤ 0.5 | ≤ 0.5 | – | – | –
11 | COc1ncc(-c2ccc3ncc4c(c3c2)n(-c2ccc(C(C)(C)C#N)cc2)c(=NC#N)n4C)cc1NS(C)(=O)=O [Example 127, N-(5-(2-(cyanoimino)-1-(4-(2-cyanopropan-2-yl)phenyl)-3-methyl-2,3-dihydro-1H-imidazo[4,5-c]quinolin-8-yl)-2-methoxypyridin-3-yl)methanesulfonamide] | – | – | 30 to 70 | ≥ 70 | –
12 | CC(=O)Nc1cc(C)c(-c2ccc3ncc4c(c3c2)n(-c2ccc(C(C)(C)C#N)nc2)c(=NC#N)n4C)cn1 [Example 128, N-(5-(2-(cyanoimino)-1-(6-(2-cyanopropan-2-yl)pyridin-3-yl)-3-methyl-2,3-dihydro-1H-imidazo[4,5-c]quinolin-8-yl)-4-methylpyridin-2-yl)acetamide] | – | – | < 30 | 30 to 70 | –
13 | CN(C)c1ncc(-c2ccc3ncc4c(c3c2)n(-c2ccc(C(C)(C)C#N)cc2)c(=NC#N)n4C)cc1C(F)(F)F [Example 129, N-(1-(4-(2-cyanopropan-2-yl)phenyl)-8-(6-(dimethylamino)-5-(trifluoromethyl)pyridin-3-yl)-3-methyl-1H-imidazo[4,5-c]quinolin-2(3H)-ylidene) cyanamide] | – | – | – | – | % Inhibition at 1 μM, PC3 (PC3 (prostate cell line)): ++ (≧30% upto 70%); % Inhibition at 1 μM, A2780 [1]: +++ (≧70%)
14 | CC(=O)N(C(C)=O)c1ncc(-c2ccc3ncc4c(c3c2)n(-c2ccc(C(C)(C)C#N)cc2)c(=NC#N)n4C)cc1C(F)(F)F [Example 131, N-acetyl-N-(5-(2-(cyanoimino)-1-(4-(2-cyanopropan-2-yl)phenyl)-3-methyl-2,3-dihydro-1H-imidazo[4,5-c]quinolin-8-yl)-3-(trifluoromethyl)pyridin-2-yl)acetamide] | – | – | 30 to 70 | 30 to 70 | –
15 | CC(=O)N(C(C)=O)c1ncc(-c2ccc3ncc4c(c3c2)n(-c2ccc(C(C)(C)C#N)nc2)c(=NC#N)n4C)cc1C(F)(F)F [Example 132, N-acetyl-N-(5-(2-(cyanoimino)-1-(6-(2-cyanopropan-2-yl)pyridin-3-yl)-3-methyl-2,3-dihydro-1H-imidazo[4,5-c]quinolin-8-yl)-3-(trifluoromethyl)pyridin-2-yl)acetamide] | – | – | < 30 | < 30 | –
16 | COc1ncc(-c2ccc3ncc4c(c3c2)n(-c2ccc(C(C)(C)C#N)cc2)c(=NC#N)n4C)cc1NS(=O)(=O)c1ccc(F)cc1F [Example 135, N-(5-(2-(cyanoimino)-1-(4-(2-cyanopropan-2-yl)phenyl)-3-methyl-2,3-dihydro-1H-imidazo[4,5-c]quinolin-8-yl)-2-methoxypyridin-3-yl)-2,4-difluorobenzenesulfonamide] | – | – | ≥ 70 | ≥ 70 | –
17 | CCCC(CCC)C(=O)Nc1ncc(-c2ccc3ncc4c(c3c2)n(-c2ccc(C(C)(C)C#N)nc2)c(=NC#N)n4C)cc1C(F)(F)F [Example 136, N-(5-(2-(cyanoimino)-1-(6-(2-cyanopropan-2-yl)pyridin-3-yl)-3-methyl-2,3-dihydro-1H-imidazo[4,5-c]quinolin-8-yl)-3-(trifluoromethyl)pyridin-2-yl)-2-propylpentanamide] | – | – | 30 to 70 | ≥ 70 | –
18 | COC(=O)c1cc(-c2ccc3ncc4c(c3c2)n(-c2ccc(C(C)(C)C#N)nc2)c(=NC#N)n4C)cnc1N [Example 137, Methyl 2-amino-5-(2-(cyanoimino)-1-(6-(2-cyanopropan-2-yl)pyridin-3-yl)-3-methyl-2,3-dihydro-1H-imidazo[4,5-c]quinolin-8-yl)nicotinate] | ≤ 0.5 | ≤ 0.5 | – | – | –
19 | Cn1c(=NC#N)n(-c2ccc(C(C)(C)C#N)nc2)c2c3cc(-c4cnc(NCc5ccccc5)c(C(F)(F)F)c4)ccc3ncc21 [Example 138, N-(8-(6-(benzylamino)-5-(trifluoromethyl)pyridin-3-yl)-1-(6-(2-cyanopropan-2-yl)pyridin-3-yl)-3-methyl-1H-imidazo[4,5-c]quinolin-2(3H)-ylidene)cyanamide] | ≤ 0.5 | ≤ 0.5 | – | – | –
20 | N-(1-(6-methoxypyridin-3-yl)-3-methyl-8-(4-(trifluoromethyl)phenyl)-1H-imidazo[4,5-c]quinolin-2(3H)-ylidene)cyanamide [Example 43] | – | – | – | – | % Inhibition at 1 μM, PC3 (PC3 (prostate cell line)): + (<30%); % Inhibition at 1 μM, A2780 [1]: + (<30%)
